Assay results from patent US12168673B2 (Mitopower, Inc., priority 2022, dated 2024).

Tests used:
Huh-7 Cells = assay: Cellular NAD+ levels in Huh-7 cells (LCMS/MS); assay type: cell-based; conditions: 125 μm, four hours of incubation
Description: (§1) Huh-7 Cells, sourced from NCCS Pune, were cultured in RPMI media containing FBS & Antibiotics. Cells from different flasks (80-90% confluent) were pooled into a 15 mL conical tube and centrifuged for 5 mins at 1200 rpm for 5 mins. The supernatant solution was discarded, and the pellet was washed with 5 mL sterile PBS (without Ca^2+ and Mg^2+). The tube was then centrifuged at 1200 rpm for 5 mins and the supernatant was discarded. The cell pellet was resuspended in 7 mL of RPMI media, and a cell count was done using 10 uL of the cell solution. 1.5 million cells from the cell solution were seeded into 1.5 mL microcentrifuge tubes. […] The tubes were placed in racks and gently swirled to mix the compounds into the media containing the cells. These tubes were then incubated for 4 hours in a 37° C. incubator at 5% CO2. After 4 hours of incubation the cells were spun down at 1000 rpm for 10 mins, the supernatant was discarded carefully, and cells were snap frozen in liquid nitrogen. When the samples were run, the extraction of the cells was on ice, cells were lysed using 20 uL deionized water and then ice cold 80% methanol containing the internal standard—Rac-Tenofovir D was added. The tubes were then vortexed at 2500 rpm for 8 minutes and then centrifuged at […] for 10 minutes. 150 uL of the supernatant was carefully transferred to HPLC vials and was analyzed for NAD^+ on the Abscised 4000 Q Trap LCMS/MS system. A C18, 3.5 μm, 2.1×100 mm, Bridge Column was used in the LC. The mobile phase consisted of 10 mM ammonium acetate with 0.1% acetic acid & 0.1% hexylamine as Solvent-A and 10 mM Ammonium acetate with 0.1% acetic acid and 0.1% hexylamine in 95/5 MeOH/H2O as Solvent-B. The gradient used was 0 mins-0.0% B, 0.5 mins-100% B, 1.5 mins-100% B, 3.0 mins-100% B, 3.1 mins-0.0% B, 7.0-STOP. The column flow rate was 0.5 mL/min. The sample injection volume was […].

[1] = Stability in solutions (pH range, simulated gastric fluid, simulated intestinal fluid); assay type: physicochemical
Description: 1 mg/ml solutions of compound 100 were prepared in each buffer, diluted to 0.1 mg/ml in methanol at each time point and analyzed as follows: Gemini C-18, 250×4.6 mm, 5 im, Mobile Phase: Methanol Isocratic Flow Rate: 0.4 mL/min.

Jurkat Cells = assay: Cellular NAD+ levels in Jurkat cells (LCMS/MS); assay type: cell-based; conditions: 30 μM, four hours of incubation
Description: Compounds 100, 101 and 102 were weighted out to prepare 60 μM stock solutions in RPMI media. 200 ng/mL solution of Rac-tenofovir d6 (Vivan Life-Sciences) was prepared in methanol (MeOH) and placed at −20° C. until use.
as §1, with “Jurkat Cells,” for “Huh-7 Cells,”, “flasks (90%” for “flasks (80-90%”, “Ca^2+ &” for “Ca^2+ and”, “acid and” for “acid &”

[2] = SGF (simulated gastric fluid), 0 h
[3] = SGF (simulated gastric fluid), 1 week
[4] = SGF (simulated gastric fluid), 1 h
[5] = SGF (simulated gastric fluid), 2 h
[6] = SGF (simulated gastric fluid), 4 h
[7] = SGF (simulated gastric fluid), 8 h
[8] = SGF (simulated gastric fluid), 24 h
[9] = SGF (simulated gastric fluid), 48 h
[10] = SIF (simulated intestinal fluid), 0 h
[11] = SIF (simulated intestinal fluid), 1 week
[12] = SIF (simulated intestinal fluid), 1 h
[13] = SIF (simulated intestinal fluid), 2 h
[14] = SIF (simulated intestinal fluid), 4 h
[15] = SIF (simulated intestinal fluid), 8 h
[16] = SIF (simulated intestinal fluid), 24 h
[17] = SIF (simulated intestinal fluid), 48 h

O=C(OC1O[C@H](CO)[C@@H](O)[C@H]1O)c1cccnc1 (stereo partly drawn) [Compound 100, (3R, 4S, 5R)-3,4-dihydroxy-5-(hydroxymethyl) tetrahydrofuran-2-yl nicotinate]
NAD+ level increase compared to untreated cells (Huh-7 Cells): showed an increase | % remaining [1, 2]: 100.0% | % remaining [1, 3]: 43.4% | % remaining [1, 4]: 99.1% | % remaining [1, 5]: 89.2% | % remaining [1, 6]: 79.6% | % remaining [1, 7]: 65.4% | % remaining [1, 8]: 71.7% | % remaining [1, 9]: 55.0% | % remaining [1, 10]: 100.0% | % remaining [1, 11]: 30.7% | % remaining [1, 12]: 76.4% | % remaining [1, 13]: 64.5% | % remaining [1, 14]: 41.4% | % remaining [1, 15]: 40.5% | % remaining [1, 16]: 36.7% | % remaining [1, 17]: 38.7% | % remaining ([1]; pH 1, 0 h): 100.0% | % remaining ([1]; pH 1, 1 week): 46.5% | % remaining ([1]; pH 1, 1 h): 100.9% | % remaining ([1]; pH 1, 2 h): 104.8% | % remaining ([1]; pH 1, 4 h): 80.7% | % remaining ([1]; pH 1, 8 h): 49.0% | % remaining ([1]; pH 1, 24 h): 53.0% | % remaining ([1]; pH 1, 48 h): 45.6% | % remaining ([1]; pH 2, 0 h): 100.0% | % remaining ([1]; pH 2, 1 week): 31.9% | % remaining ([1]; pH 2, 1 h): 91.9% | % remaining ([1]; pH 2, 2 h): 93.8% | % remaining ([1]; pH 2, 4 h): 93.0% | % remaining ([1]; pH 2, 8 h): 54.8% | % remaining ([1]; pH 2, 24 h): 28.6% | % remaining ([1]; pH 2, 48 h): 36.0% | % remaining ([1]; pH 4, 0 h): 100.0% | % remaining ([1]; pH 4, 1 week): 45.4% | % remaining ([1]; pH 4, 1 h): 95.7% | % remaining ([1]; pH 4, 2 h): 99.2% | % remaining ([1]; pH 4, 4 h): 97.9% | % remaining ([1]; pH 4, 8 h): 49.0% | % remaining ([1]; pH 4, 24 h): 42.3% | % remaining ([1]; pH 4, 48 h): 42.9% | % remaining ([1]; pH 6, 0 h): 100.0% | % remaining ([1]; pH 6, 1 week): 48.1% | % remaining ([1]; pH 6, 1 h): 92.0% | % remaining ([1]; pH 6, 2 h): 86.4% | % remaining ([1]; pH 6, 4 h): 70.9% | % remaining ([1]; pH 6, 8 h): 50.4% | % remaining ([1]; pH 6, 24 h): 55.1% | % remaining ([1]; pH 6, 48 h): 47.7% | % remaining ([1]; pH 7.4, 0 h): 100.0% | % remaining ([1]; pH 7.4, 1 week): 34.2% | % remaining ([1]; pH 7.4, 1 h): 57.1% | % remaining ([1]; pH 7.4, 2 h): 41.1% | % remaining ([1]; pH 7.4, 4 h): 37.5% | % remaining ([1]; pH 7.4, 8 h): 46.3% | % remaining ([1]; pH 7.4, 24 h): 46.0% | % remaining ([1]; pH 7.4, 48 h): 36.6% | % remaining ([1]; pH 9, 0 h): 100.0% | % remaining ([1]; pH 9, 1 week): 9.2% | % remaining ([1]; pH 9, 1 h): 17.7% | % remaining ([1]; pH 9, 2 h): 7.8% | % remaining ([1]; pH 9, 4 h): 7.6% | % remaining ([1]; pH 9, 8 h): 7.5% | % remaining ([1]; pH 9, 24 h): 6.6% | % remaining ([1]; pH 9, 48 h): 8.1% | NAD+ level increase compared to untreated cells (Jurkat Cells): showed statistical significance in terms of NAD^+ level increases

COC(=O)[C@@H](C)NP(=O)(OC[C@H]1OC(OC(=O)c2cccnc2)[C@H](O)[C@@H]1O)Oc1ccccc1 (stereo partly drawn) [Compound 101, (3R, 4S, 5R)-3,4-dihydroxy-5-(((((1-methoxy-1-oxopropan-2-yl)amino)(phenoxy)phosphoryl)oxy)methyl)tetrahydrofuran-2-yl nicotinate]
NAD+ level increase compared to untreated cells (Huh-7 Cells): showed an increase | % remaining [1, 2]: 90.17% | % remaining [1, 3]: 3.41% | % remaining [1, 4]: 88.8% | % remaining [1, 5]: 87.74% | % remaining [1, 6]: 83.09% | % remaining [1, 7]: 77.12% | % remaining [1, 8]: 41.98% | % remaining [1, 9]: 29.17% | % remaining [1, 10]: 91.59% | % remaining [1, 11]: 76.58% | % remaining [1, 12]: 91.12% | % remaining [1, 13]: 91.16% | % remaining [1, 14]: 90.07% | % remaining [1, 15]: 90.28% | % remaining [1, 16]: 85.29% | % remaining [1, 17]: 85.54% | % remaining ([1]; pH 1, 0 h): 88.03% | % remaining ([1]; pH 1, 1 week): 1.01% | % remaining ([1]; pH 1, 1 h): 85.91% | % remaining ([1]; pH 1, 2 h): 85.4% | % remaining ([1]; pH 1, 4 h): 81.82% | % remaining ([1]; pH 1, 8 h): 74.41% | % remaining ([1]; pH 1, 24 h): 50.26% | % remaining ([1]; pH 1, 48 h): 16.35% | % remaining ([1]; pH 2, 0 h): 88.86% | % remaining ([1]; pH 2, 1 week): 13.5% | % remaining ([1]; pH 2, 1 h): 88.82% | % remaining ([1]; pH 2, 2 h): 87.46% | % remaining ([1]; pH 2, 4 h): 85.16% | % remaining ([1]; pH 2, 8 h): 81.19% | % remaining ([1]; pH 2, 24 h): 63.31% | % remaining ([1]; pH 2, 48 h): 35.33% | % remaining ([1]; pH 4, 0 h): 82.98% | % remaining ([1]; pH 4, 1 week): 37.7% | % remaining ([1]; pH 4, 1 h): 83.96% | % remaining ([1]; pH 4, 2 h): 82.79% | % remaining ([1]; pH 4, 4 h): 81.96% | % remaining ([1]; pH 4, 8 h): 79.6% | % remaining ([1]; pH 4, 24 h): 70.75% | % remaining ([1]; pH 4, 48 h): 69.7% | % remaining ([1]; pH 6, 0 h): 88.78% | % remaining ([1]; pH 6, 1 week): 73.66% | % remaining ([1]; pH 6, 1 h): 88.01% | % remaining ([1]; pH 6, 2 h): 87.98% | % remaining ([1]; pH 6, 4 h): 87.55% | % remaining ([1]; pH 6, 8 h): 86.2% | % remaining ([1]; pH 6, 24 h): 86.09% | % remaining ([1]; pH 6, 48 h): 73.74% | % remaining ([1]; pH 7.4, 0 h): 88.58% | % remaining ([1]; pH 7.4, 1 week): 67.37% | % remaining ([1]; pH 7.4, 1 h): 88.62% | % remaining ([1]; pH 7.4, 2 h): 88.48% | % remaining ([1]; pH 7.4, 4 h): 87.24% | % remaining ([1]; pH 7.4, 8 h): 86.71% | % remaining ([1]; pH 7.4, 24 h): 86.62% | % remaining ([1]; pH 7.4, 48 h): 79.75% | % remaining ([1]; pH 9, 0 h): 90.15% | % remaining ([1]; pH 9, 1 week): 0% | % remaining ([1]; pH 9, 1 h): 80.81% | % remaining ([1]; pH 9, 2 h): 70.65% | % remaining ([1]; pH 9, 4 h): 48.75% | % remaining ([1]; pH 9, 8 h): 26.14% | % remaining ([1]; pH 9, 24 h): 4.45% | % remaining ([1]; pH 9, 48 h): 0% | NAD+ level increase compared to untreated cells (Jurkat Cells): showed statistical significance in terms of NAD^+ level increases | NAD+ level increase, comparison among the compounds (Jurkat Cells): highest increase
